Here are results for six molecules from BindingDB's records for PubMed 7996470 (University of Michigan, 1994).

pKi: −log10 of the molar value.

For the first test, the target named is T1, Alpha-2A adrenergic receptor (Homo sapiens, UniProt P08913).
T1 sequence (P08913 whole entry): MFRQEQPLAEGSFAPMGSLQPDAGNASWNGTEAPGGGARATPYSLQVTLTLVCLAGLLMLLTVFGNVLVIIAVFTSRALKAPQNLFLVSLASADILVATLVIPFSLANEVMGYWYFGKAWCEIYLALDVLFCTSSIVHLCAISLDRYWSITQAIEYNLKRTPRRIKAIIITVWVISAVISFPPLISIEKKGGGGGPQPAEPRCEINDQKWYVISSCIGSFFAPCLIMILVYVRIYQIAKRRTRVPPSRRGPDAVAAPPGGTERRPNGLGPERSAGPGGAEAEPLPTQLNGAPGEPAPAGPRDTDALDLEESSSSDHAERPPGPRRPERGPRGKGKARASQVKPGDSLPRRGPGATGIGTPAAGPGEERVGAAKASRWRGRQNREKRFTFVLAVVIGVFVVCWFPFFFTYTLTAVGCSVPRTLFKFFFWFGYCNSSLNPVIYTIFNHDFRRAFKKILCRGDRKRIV
For the molecule `O=C1NCN(c2ccccc2)C12CCN(CC1COc3ccccc3O1)CC2` (centres undefined) [8-(2,3-Dihydro-benzo[1,4]dioxin-2-ylmethyl)-1-phenyl-1,3,8-triaza-spiro[4.5]decan-4-one], the negative logarithm of the Ki (pKi) was 7.27.

Molecule `CC1c2ccccc2CN1CC1=NCCN1` (centres undefined) [NSC_121850] showed a negative logarithm of the Ki (pKi) of 8.25.

Regarding `COc1cccc(OC)c1OCCNCC1Oc2ccccc2OC1c1ccccc1` (centres undefined) [NSC_185453], the pKi was 7.84. This pKi lies 0.41 log units lower than the previous one.

Consider `COC1(C2=NCCN2)COc2ccccc2O1` (centres undefined) [RX821002], for which the negative logarithm of the Ki (pKi) is 9.21. Compared with the last molecule, the pKi is 1.37 log units higher.

The target in another test is T2, Alpha-2C adrenergic receptor (Homo sapiens, UniProt P18825).
T2 sequence (P18825 whole entry): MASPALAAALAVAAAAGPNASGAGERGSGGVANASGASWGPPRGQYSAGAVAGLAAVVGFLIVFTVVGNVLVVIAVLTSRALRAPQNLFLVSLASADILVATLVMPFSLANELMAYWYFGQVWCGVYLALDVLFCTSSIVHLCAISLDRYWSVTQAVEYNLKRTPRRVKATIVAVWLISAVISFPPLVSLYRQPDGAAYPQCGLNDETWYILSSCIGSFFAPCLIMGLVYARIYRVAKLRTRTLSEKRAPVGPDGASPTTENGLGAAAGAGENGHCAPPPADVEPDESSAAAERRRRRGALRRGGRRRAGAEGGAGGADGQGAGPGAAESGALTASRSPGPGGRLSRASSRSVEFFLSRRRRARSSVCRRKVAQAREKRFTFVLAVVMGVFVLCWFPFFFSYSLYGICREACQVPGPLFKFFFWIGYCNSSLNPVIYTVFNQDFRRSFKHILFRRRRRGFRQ
In the case of `COc1cc(N)c(Cl)cc1C(=O)NC1CC2CCC(C1)N2C` (centres undefined) [4-amino-5-chloro-2-methoxy-N-(8-methyl-8-azabicyclo[3.2.1]octan-3-yl)benzamide], the pKi was 6.82.

The molecule `O=C1NCN(c2ccccc2)C12CCN(CC1COc3ccccc3O1)CC2` (centres undefined) [8-(2,3-Dihydro-benzo[1,4]dioxin-2-ylmethyl)-1-phenyl-1,3,8-triaza-spiro[4.5]decan-4-one] showed a pKi of 8.98.

As for `COc1ccccc1N1CCN(CCC2C(=O)c3ccccc3C(C)(C)C2=O)CC1` (centres undefined) [NSC_122211], the pKi was 7.50. Compared with the last molecule, the pKi is 1.48 log units lower.

`COc1cccc(OC)c1OCCNCC1Oc2ccccc2OC1c1ccccc1` (centres undefined) [NSC_185453] gave a pKi of 8.50.

In the case of `COC1(C2=NCCN2)COc2ccccc2O1` (centres undefined) [RX821002], the pKi was 8.75. Against the preceding molecule, the pKi is 0.25 log units higher.
